By solubility is commonly meant how much of the substance goes into solution per volume. High values mean a readily soluble substance, low ones a poorly soluble substance.

Data set [1] in a line: Solubility of pazopanib free base in phosphate buffer. The following applies: 25° C., pH 3.5.
The next data set can be described thus: physchem. The following applies: phosphate buffer, 25 °C, pH 5, aqueous buffer.

≈ marks a conversion by molar mass, not a printed value.

`Cc1ccc(Nc2nccc(N(C)c3ccc4c(C)n(C)nc4c3)n2)cc1S(N)(=O)=O` [pazopanib free base, 5-[[4-[(2,3-dimethyl-2H-indazol-6-yl)methylamino]-2-pyrimidinyl]amino]-2-methylbenzenesulfonamide] returned an approximate solubility in data set [1] of approximately 20000 ng/mL. Further, the solubility in “physchem” was approximately 6 ng/mL (≈ 0.0137 µM).

The record behind these values is patent publication US20110281901A1, “PHARMACEUTICAL COMPOSITIONS AND METHODS OF MAKING SAME” (GLAXO WELLCOME MANUFACTURING PTE LTD., priority 2010, published 2011).
